Measured values reported in patent US8735590B2, “Bicyclo-heptan-2-amines” (priority 2011, dated 2014).

Assays:
[1] = target: T1, Sigma-2 receptor (Rattus norvegicus, UniProt Q5U3Y7); assay: NIMH-PDSP receptor binding, Sigma-2 (radioligand DTG, PC12)
T1 construct: endogenous in cells
T1 sequence (Q5U3Y7 1-176): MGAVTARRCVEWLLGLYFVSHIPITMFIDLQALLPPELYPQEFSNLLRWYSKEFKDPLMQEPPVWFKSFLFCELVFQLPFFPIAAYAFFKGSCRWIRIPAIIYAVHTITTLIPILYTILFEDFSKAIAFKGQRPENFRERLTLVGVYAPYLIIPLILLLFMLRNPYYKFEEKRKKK
Description: (§1) Compounds 5a, 5b and 5c were accepted into the National Institute of Mental Health Psychoactive Drug Screening Program, NIMH-PDSP, National Institutes of Health (NIH). Each compound was evaluated for affinity at human or rat receptors. Sites to be evaluated were chosen based on known or suspected sites of interaction with related compounds. The receptors evaluated, radio-labeled ligand, species and receptor source are depicted in Table 1. Experimental details and procedure can be found through Assay Protocol Book, National Institute of Mental Health Psychoactive Drug Screening Program, University of North Carolina at Chapel Hill.

[2] = target: T2, Sigma-1 receptor (Rattus norvegicus, UniProt Q9R0C9); assay: NIMH-PDSP receptor binding, Sigma-1 (radioligand Pentazocine(+), brain)
T2 construct: from tissue; NIMH-PDSP)
T2 sequence (Q9R0C9 whole entry): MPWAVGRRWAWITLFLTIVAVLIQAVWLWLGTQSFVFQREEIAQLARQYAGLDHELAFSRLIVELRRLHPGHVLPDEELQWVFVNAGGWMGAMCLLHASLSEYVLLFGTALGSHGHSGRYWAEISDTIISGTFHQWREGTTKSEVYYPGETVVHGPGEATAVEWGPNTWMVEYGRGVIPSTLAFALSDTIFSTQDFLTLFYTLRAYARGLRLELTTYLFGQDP
Description: as §1

[3] = tested on: MDCK cells; assay: MTT cell viability assay in MDCK cells; format: cell-based, canine; settings: 10-500 μM, FIG. 3A
Source text: (§2) We evaluated the effect of compounds 5a, 5b and 5c on cell viability in the neuronal cell line N2a and in the Madin-Darby canine kidney (MDCK) cell line, a blood-brain barrier model. Memantine, an NMDA glutamate receptor antagonist, was used as a negative control.
(§3) Mouse Neuro-2a (CCL-131, ATCC) and MDCK (CCL-34, ATCC) were routinely propagated using Eagle's Minimum Essential Medium (EMEM, ATCC), supplemented with 10% fetal bovine serum (FBS, ATCC) and 1% penicillin/streptomycin (Gibco) in 100 cm^2 Petri-dishes (Corning) at 37° C. in 5% CO2. Compounds 5a, 5b and 5c were obtained as salts. Stock solutions (1 mM) were prepared in double distilled water. The treatment concentrations for the compounds and the memantine control were 10, 50, 100, 200, 300, and 500 μM. Cells were allowed to attach overnight prior to treatment. H2O2 served as positive control. Working concentrations were prepared immediately prior to treatment by dilution into medium.
(§4) Cell viability was assayed using the MTT (3-(4,5-dimethylthiazole-2-yl)-2,5-diphenyltetrazoliumbromide) assay (ATCC) according to manufacturer's instructions. Cells were plated at a concentration of 13,000 to 20,000 cells/well on a 96-well round-bottom plate. MTT assay. The following determinants were optimized for each cell line: plating cell concentration; incubation time with MTT reagent, and incubation time with detergent reagent. Absorbance was recorded at 570 nm by a microtiter plate reader (VICTOR^3, PerkinElmer). This experiment was repeated on three separate occasions and results were presented as the mean absorbance±SD.

[4] = tested on: N2a cells; assay: MTT cell viability assay in N2a cells; format: cell-based, Mouse; settings: 10-500 μM, FIG. 4A
Source text: as §2, §3, §4

[5] = tested on: MCF-7 cells; assay: MTT cell viability assay in MCF-7 breast carcinoma cells; format: cell-based, human; settings: 24 hours; for effect on cell viability in MCF-7 cells: MTT assay, 10 μM to 500 μM, FIG. 6; for percent survival of untreated control cells: MTT
Description: (§5) We also evaluated the effect of compounds 5a, 5b and 5c on the human glioma cell line U-138 and the human breast carcinoma cell line MCF-7. Doxorubicin, a clinically used anticancer compound, served as a positive control.
(§6) Cell viability was assayed using the MTT assay essentially as described in Example 8. Adherent cells were trypsinized and placed into 96-well flat bottom tissue culture plates in 100 μl of supplemented Dulbecco's Modified Eagles Media (DMEM) at 10,000 cells/well for 24 hours. Cells were treated with the compounds for 24 hours at concentrations ranging from 10 μM to 500 μM. Cells were incubated with MTT reagent for 4 hours followed with MTT detergent for 24 hours. Plates were read on a computerized microplate ELISA reader at an optical density of 570 nm. The percent cytotoxicity was determined by the ratio of treated optical densities to control optical densities (OD) from one and multiplying by 100. The concentration giving 50% cytotoxicity, IC50, was determined from the dose response curves for each cell line using the GraphPad Prism software package. Each experiment was performed three separate times and the data presented are the pooled results of the three experiments.

[6] = tested on: U-138 glioma cells; assay: MTT cell viability assay in U-138 glioma cells; format: cell-based, human; settings: 24 hours, 10 μM to 500 μM, FIG. 5
Description: as §5, §6

[7] = tested on: MES-induced seizures; assay: Maximal Electroshock Test (MES), tonic-clonic seizure model; format: in vivo; settings: mice
Description: Compounds 5a, 5b and 5c were evaluated in for the ability to modulate seizures using the Maximal Electroshock Test (MES), a model for generalized tonic-clonic seizures that can provide an indication of a compound's ability to prevent seizure spread when all neuronal circuits in the brain are maximally active. For all tests based on MES convulsions, 60 Hz of alternating current (50 mA in mice) was delivered for […] by corneal electrodes which had been primed with an electrolyte solution containing an anesthetic agent (0.5% tetracaine HCL). Mice were tested at various intervals following doses of 30, 100 and 300 mg/kg of test compound given by i.p. injection of a volume of 0.01 mUg. An animal was considered “protected” from MES-induced seizures upon abolition of the hindlimb tonic extensor component of the seizure. Compound 5c was active at 100 and 300 mg/kg.

**Q.** How did the Ki [1] turn out when `c1ccc(C2(NCCCN3CCCCC3)CC3CCC2C3)cc1` (racemic) [Compound 5a, (±)-2-Phenyl-N-(3-(piperidin-1-yl)propyl)bicyclo[2.2.1]heptan-2-amine] was run?
**A.** 9.6 nM

**Q.** And the Ki [2]?
**A.** > 10000 nM

**Q.** What about the “effect on cell viability in MDCK cells” value [3] of the same molecule?
**A.** minimal effects on cell viability

**Q.** And the “effect on cell viability in N2a cells” value [4]?
**A.** dose-dependent reduction in cell viability

**Q.** And the “effect on cell viability in MCF-7 cells” value [5]?
**A.** dose-dependent reduction in cell viability

**Q.** With `Fc1ccc(C2(NCCCN3CCCCC3)CC3CCC2C3)cc1` (racemic) [Compound 5b, (±)-2-(4-Fluorophenyl)-N-(3-(piperidin-1-yl)propyl)bicyclo[2.2.1]heptan-2-amine] as the molecule, how does the Ki [1] read?
**A.** 16 nM

**Q.** What about the Ki [2] of the same molecule?
**A.** > 10000 nM

**Q.** And the “effect on cell viability in MDCK cells” value [3]?
**A.** minimal effects on cell viability

**Q.** And the “effect on cell viability in N2a cells” value [4]?
**A.** dose-dependent reduction in cell viability

**Q.** What about the “effect on cell viability in U-138 glioma cells” value [6] of the same molecule?
**A.** dose-dependent effect on cell viability

**Q.** What about the “percent survival of untreated control cells” value (shortened to “percent survival”) ([5]; 200 μM) of the same molecule?
**A.** 70%

**Q.** What about the “percent survival” value ([5]; 300 μM) of the same molecule?
**A.** 63%

**Q.** And the “percent survival” value ([5]; 500 μM)?
**A.** 16%

**Q.** And the “effect on cell viability in MCF-7 cells” value [5]?
**A.** dose-dependent reduction in cell viability

**Q.** How did the Ki [1] turn out when `Fc1ccc(C2(NCCCOC3CCCCO3)CC3CCC2C3)cc1` (racemic) [Compound 5c, 2-(4-Fluorophenyl)-N-(3-(tetrahydro-2H-pyran-2-yloxy)propyl)bicyclo[2.2.1]heptan-2-amine] was run?
**A.** 5.5 nM

**Q.** What about the Ki [2] of the same molecule?
**A.** > 10000 nM

**Q.** What about the “effect on cell viability in MDCK cells” value [3] of the same molecule?
**A.** minimal effects on cell viability

**Q.** What about the “effect on cell viability in N2a cells” value [4] of the same molecule?
**A.** dose-dependent reduction in cell viability

**Q.** What about the “effect on cell viability in MCF-7 cells” value [5] of the same molecule?
**A.** dose-dependent reduction in cell viability

**Q.** And the “activity in MES test (protection from MES-induced seizures)” value ([7]; 100 mg/kg i.p.)?
**A.** active

**Q.** What about the “activity in MES test (protection from MES-induced seizures)” value ([7]; 300 mg/kg i.p.) of the same molecule?
**A.** active
